Experimental data from patent US20070197957A1, “Implantable sensors, implantable pumps and anti-scarring drug combinations” (priority 2005, published 2007).
Entries after “also recorded” stand apart in the source; their conditions may differ. Values belong to the compound of their own block, whether it stands above or below them.

Experiments:
[1] = in vivo; cited from earlier work
glucocorticoid receptor = molecular target: T1, glucocorticoid receptor (Homo sapiens, UniProt P04150); experiment: glucocorticoid receptor trafficking (mechanism study); type: cell-based
T1 construct: host or cells: T cells are named only for the GRE reporter experiment in the same sentence
T1 sequence (P04150 whole entry, species assumed): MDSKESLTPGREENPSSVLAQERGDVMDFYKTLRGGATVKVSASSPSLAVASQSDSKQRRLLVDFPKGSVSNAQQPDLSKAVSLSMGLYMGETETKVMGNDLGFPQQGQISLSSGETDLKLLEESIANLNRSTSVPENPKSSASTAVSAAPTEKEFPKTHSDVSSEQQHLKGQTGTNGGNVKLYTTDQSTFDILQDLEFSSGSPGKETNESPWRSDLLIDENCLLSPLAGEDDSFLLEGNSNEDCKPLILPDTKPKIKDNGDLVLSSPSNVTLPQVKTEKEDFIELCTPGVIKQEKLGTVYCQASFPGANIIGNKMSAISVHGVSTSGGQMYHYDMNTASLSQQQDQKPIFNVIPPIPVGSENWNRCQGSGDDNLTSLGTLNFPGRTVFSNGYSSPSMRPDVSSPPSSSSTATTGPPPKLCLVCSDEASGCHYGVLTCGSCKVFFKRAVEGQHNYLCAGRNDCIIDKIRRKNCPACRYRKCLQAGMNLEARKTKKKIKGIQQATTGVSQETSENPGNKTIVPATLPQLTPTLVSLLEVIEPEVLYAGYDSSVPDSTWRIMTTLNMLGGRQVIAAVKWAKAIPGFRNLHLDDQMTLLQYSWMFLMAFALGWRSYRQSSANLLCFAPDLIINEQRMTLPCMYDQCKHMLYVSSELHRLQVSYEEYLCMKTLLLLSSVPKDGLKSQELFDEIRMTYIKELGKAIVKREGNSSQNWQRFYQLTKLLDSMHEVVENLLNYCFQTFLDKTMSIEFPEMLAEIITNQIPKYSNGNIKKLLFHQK

GRE reporter plasmid = experiment: transactivation of a transfected GRE reporter plasmid in T cells; type: cell-based
NFAT = NFAT activation, translocation and transactivation; type: cell-based
NFkB and AP1 = NFkB and AP1 activation; type: cell-based
p38 and JNK = p38 and JNK activation; type: cell-based
ERK = ERK activation; type: cell-based
TNF-α = experiment: acute in vivo model of inflammation (LPS-induced TNF-α production); settings: amoxapine alone or reduced dose prednisolone alone
[2] = chronic in vivo arthritis model (adjuvant model), joint swelling; settings: amoxapine alone or reduced dose prednisolone alone
[3] = system: carrageenan-induced paw edema; experiment: Rat carrageenan-induced paw edema model, paw swelling; type: in vivo; settings: amoxapine alone at 2.26 mg/kg
Procedure: A dose-range finding study was performed to determine the anti-inflammatory activity of various ratios of methyl prednisolone acetate and amoxapine in a rat carrageenan-induced paw edema model. […] The molar ratio of methyl prednisolone acetate to amoxapine ranged from 1:1 to 1:300, using total doses of methyl prednisolone acetate of 0.01, 0.03 or 0.1 mg/kg.
The test agent (a combination of methyl prednisolone acetate and amoxapine), vehicle control, or reference agents (methyl prednisolone acetate, amoxapine, or Depo-Medrol®) were administered in the left hind foot pad of rats. After 60 minutes, paw edema was induced by injection of 100 μl of 1% carrageenan in the same foot pad. The paw volume was measured with a water displacement plethysmometer immediately prior to test agent injection (T-1h), at the time of carrageenan injection (T0h), and at T6h. Animals were euthanized by carbon dioxide inhalation. Paw tissue samples were collected and flash frozen in liquid nitrogen. Samples were assayed for TNF-α by enzyme-linked immunoassay (ELISA).

[4] = 200 mg/day orally; cited from earlier work
[5] = water; cited from earlier work
[6] = system: mast cells and eosinophil
AP-1 = experiment: IL-1 induced AP-1 binding activity in chondrocyte lysates; type: cell-based; settings: lysates from chondrocytes pretreated with the agent (FIG. 1C)
[7] = system: collagenase and stromelysin; experiment: IL-1 induced collagenase and stromelysin RNA levels in chondrocytes; type: cell-based; settings: pretreatment (FIG. 1D)
[8] = system: AP-1 transcriptional activity; experiment: IL-1 stimulated AP-1 transcriptional activity (AP-1 driven CAT reporter gene) in transfected chondrocytes; type: cell-based; settings: IL-1 50 ng/ml, 24 hours, paclitaxel 10^−7 to 10^−5 M
[9] = system: AP-1 DNA binding activity; experiment: IL-1 induced AP-1 DNA binding activity, gel mobility shift assay with chondrocyte extracts; type: cell-based; settings: chondrocyte lysates, pretreated with paclitaxel 10^−7 to 10^−5 M for 24 hours
[10] = system: Chick Chorioallantoic Membrane (CAM) vasculature; experiment: Chick chorioallantoic membrane (CAM) angiogenesis assay; type: in vivo; settings: for Inhibition/n: 48 hours exposure
Procedure: Fertilized, domestic chick embryos were incubated for 3 days prior to shell-less culturing. In this procedure, the egg contents were emptied by removing the shell located around the air space. The interior shell membrane was then severed and the opposite end of the shell was perforated to allow the contents of the egg to gently slide out from the blunted end. The egg contents were emptied into round-bottom sterilized glass bowls and covered with petri dish covers. These were then placed into an incubator at 90% relative humidity and 3% CO2 and incubated for 3 days.
Ten microliter aliquots of this solution were dried on parafilm for 1 hour forming disks 2 mm in diameter. The dried disks containing paclitaxel were then carefully placed at the growing edge of each CAM at day 6 of incubation. Controls were obtained by placing paclitaxel-free methylcellulose disks on the CAMs over the same time course. After a 2 day exposure (day 8 of incubation) the vasculature was examined with the aid of a stereomicroscope. Liposyn II, a white opaque solution, was injected into the CAM to increase the visibility of the vascular details. The vasculature of unstained, living embryos were imaged using a Zeiss stereomicroscope which was interfaced with a video camera (Dage-MTI Inc., Michigan City, Ind.). […] Image negatives were then made on a graphics recorder (Model 3000; Matrix Instruments, Orangeburg, N.Y.).
The membranes of the 8 day-old shell-less embryo were flooded with 2% glutaraldehyde in 0.1M sodium cacodylate buffer; additional fixative was injected under the CAM. After 10 minutes in situ, the CAM was removed and placed into fresh fixative for 2 hours at room temperature. The tissue was then washed overnight in cacodylate buffer containing 6% sucrose. The areas of interest were postfixed in 1% osmium tetroxide for 1.5 hours at 4° C. The tissues were then dehydrated in a graded series of ethanols, solvent exchanged with propylene oxide, and embedded in Spurr resin. Thin sections were cut with a diamond knife, placed on copper grids, stained, and examined in a Joel 1200EX electron microscope. Similarly, […] sections were cut and stained with […] for light microscopy.
At day 11 of development, chick embryos were used for the corrosion casting technique. Mercox resin (Ted Pella, Inc., Redding, Calif.) was injected into the CAM vasculature using a 30-gauge hypodermic needle. […] After injection, the plastic was allowed to sit in situ for an hour at room temperature and then overnight in an oven at 65° C. The CAM was then placed in 50% aqueous solution of sodium hydroxide to digest all organic components.
This imaging setup was used at a magnification of 160× which permitted the direct visualization of blood cells within the capillaries; thereby blood flow in areas of interest may be easily assessed and recorded. For this study, the inhibition of angiogenesis was defined as an area of the CAM (measuring 2-6 mm in diameter) lacking a capillary network and vascular blood flow. Throughout the experiments, avascular zones were assessed on a 4 point avascular gradient (Table 11). This scale represents the degree of overall inhibition with maximal inhibition represented as a 3 on the avascular gradient scale.

[11] = system: Primary human smooth muscle cells; experiment: Smooth muscle cell migration assay (Boyden chamber, rhPDGF-BB chemotaxis); type: cell-based; settings: chemotaxis to rhPDGF-BB 10 ng/ml, 4 hours
collagenase (MMP-1) mRNA = experiment: IL-1 induced MMP-1 (collagenase) mRNA expression in chondrocytes, Northern blot
stromelysin (MMP-3) mRNA = experiment: IL-1 induced MMP-3 (stromelysin) mRNA expression in chondrocytes, Northern blot
[12] = within 48 hours, depending on concentration
[13] = 10^−5 M paclitaxel, 24 hours pretreatment
[14] = chondrocytes pretreated with paclitaxel for 24 hours

SMILES: CN(C)/N=N/c1[nH]cnc1C(N)=O [Dacarbazine, dacarbazine]
- absorption from the GI tract [1]: poorly absorbed

- promotion of glucocorticoid receptor trafficking (glucocorticoid receptor): does not promote
SMILES: Clc1ccc2c(c1)C(N1CCNCC1)=Nc1ccccc1O2 [amoxapine]
- potentiation of prednisolone's ability to transactivate a GRE reporter plasmid (GRE reporter plasmid): does not potentiate
- effect on NFAT activation, translocation and transactivation (NFAT): block
- effect on NFkB and AP1 activation (NFkB and AP1): partially inhibits
- effect on p38 and JNK activation (p38 and JNK): Inhibition
- effect on ERK activation (ERK): unaffected
- benefit of the single agent (TNF-α): modest or no benefit
- benefit of the single agent [2]: modest or no benefit
- paw edema compared with vehicle treatment, in words [3]: not significantly different from the vehicle treatment

SMILES: CC(=O)N1CCN(c2ccc(OCC3COC(Cn4ccnc4)(c4ccc(Cl)cc4Cl)O3)cc2)CC1 (stereo not drawn) [ketoconazole]
- serum concentration [4]: about 3.2 micrograms
- solubility in water [5]: essentially insoluble in water

SMILES: CCOC(=O)N1CCC(=C2c3ccc(Cl)cc3CCc3cccnc32)CC1 [loratadine]
- effect on mast cells and eosinophil activation [6]: inhibits

SMILES: CC(=O)O[C@H]1C(=O)[C@@]2(C)[C@H]([C@H](OC(=O)c3ccccc3)[C@]3(O)C[C@H](OC(=O)[C@H](O)[C@@H](NC(=O)c4ccccc4)c4ccccc4)C(C)=C1C3(C)C)[C@]1(OC(C)=O)CO[C@@H]1C[C@@H]2O [paclitaxel]
- IL-1 induced binding activity (AP-1): decreased
- IL-1 induction of collagenase and stromelysin RNA levels [7]: inhibited
- IL-1 induced AP-1 reporter gene CAT activity [8]: decreased CAT activity in a concentration dependent manner; also recorded: reduced IL-1 induced AP-1 reporter gene CAT activity
- IL-1 induced AP-1 binding activity to oligonucleotides [9]: decreased
- Inhibition/n ([10]; 0.25 ug in methylcellulose (10 ul) disk): 2/11
- Inhibition/n ([10]; 0.5 ug in methylcellulose (10 ul) disk): 6/11
- Inhibition/n ([10]; 1 ug in methylcellulose (10 ul) disk): 6/15
- Inhibition/n ([10]; 5 ug in methylcellulose (10 ul) disk): 20/27
- Inhibition/n ([10]; 10 ug in methylcellulose (10 ul) disk): 16/21
- Inhibition/n ([10]; 30 ug in methylcellulose (10 ul) disk): 31/31
- angiogenesis in the CAM ([10]; 48 hours after application to the CAM): inhibited
- avascular gradient scale, maximal avascular zone [10, 12]: 3
- maximal avascular zone diameter [10, 12]: 6 mm
- IC50 [11]: 760 pM
- inhibition of collagenase mRNA expression (collagenase (MMP-1) mRNA; [13]): complete inhibition
- collagenase mRNA levels, IL-1 induced (collagenase (MMP-1) mRNA; [14]): significantly reduced
- concentration inhibiting collagenase expression in vitro (collagenase (MMP-1) mRNA; chondrocytes, IL-1 induced): 10^−6 M
- inhibition of stromelysin mRNA expression (stromelysin (MMP-3) mRNA; [13]): complete inhibition
- stromelysin mRNA levels, IL-1 induced (stromelysin (MMP-3) mRNA; [14]): significantly reduced
- concentration inhibiting stromelysin expression in vitro (stromelysin (MMP-3) mRNA; chondrocytes, IL-1 induced): 10^−6 M
